Measurements: ChEMBL document CHEMBL3399925, “Synthesis and antimycobacterial properties of ring-substituted 6-hydroxynaphthalene-2-carboxanilides” (Bioorg Med Chem, 2015)
pIC50: −log10 of the molar value. Values after ≈ are worked out from the molar mass of the structure shown.

What was measured:
THP-1 = assay: Cytotoxicity against human THP1 cells after 24 hrs by WST1 assay; type: cell-based; details: THP-1, 24 h
[1] = test system: Mycobacterium tuberculosis; assay: Antimycobacterial activity against Mycobacterium tuberculosis H37Ra ATCC 25177 assessed as cell viability at 8 ug/ml incubated for 7 days by MTT assay; type: functional
[2] = Lipophilicity, log K of the compound by HPLC method; type: physicochemical
[3] = test system: Mycobacterium avium complex sp.; assay: Antimycobacterial activity against Mycobacterium avium complex isolate CIT19/06 incubated for 5 days by alamar blue assay; type: functional; details: isolate CIT19/06, 120 h
[4] = test system: Mycobacterium tuberculosis; assay: microbe, parasite or virus in culture; type: functional; details: H37Ra ATCC 25177, 168 h
Description: Antimycobacterial activity against Mycobacterium tuberculosis H37Ra ATCC 25177 incubated for 7 days by alamar blue assay

[5] = test system: Mycobacterium avium subsp. paratuberculosis; assay: Antimycobacterial activity against Mycobacterium avium subsp. paratuberculosis isolate CIT03 incubated for 11 days by alamar blue assay; type: functional; details: isolate CIT03, 264 h

SMILES	pIC50 (THP-1)	Activity [1]	log K [2]	MIC90 [3]	MIC90 [4]	MIC90 [5]
O=C(Nc1cccc(C(F)(F)F)c1)c1ccc2cc(O)ccc2c1	< 4.52	42.9%	0.9558	91 µM (≈ 30.1 µg/mL)	24 µM (≈ 7.95 µg/mL)	24 µM (≈ 7.95 µg/mL)
Cc1cccc(NC(=O)c2ccc3cc(O)ccc3c2)c1	< 4.52	–	0.6086	54 µM (≈ 15 µg/mL)	29 µM (≈ 8.04 µg/mL)	29 µM (≈ 8.04 µg/mL)
CO[C@H]1/C=C/O[C@@]2(C)Oc3c(C)c(O)c4c(O)c(c(/C=N/N5CCN(C)CC5)c(O)c4c3C2=O)NC(=O)/C(C)=C\C=C\[C@H](C)[C@H](O)[C@@H](C)[C@@H](O)[C@@H](C)[C@H](OC(C)=O)[C@@H]1C [RIFAMPIN]	–	–	–	10 µM (≈ 8.23 µg/mL)	10 µM (≈ 8.23 µg/mL)	109 µM (≈ 89.7 µg/mL)
Cc1ccc(NC(=O)c2ccc3cc(O)ccc3c2)cc1	< 4.52	–	0.6227	451 µM (≈ 125 µg/mL)	29 µM (≈ 8.04 µg/mL)	29 µM (≈ 8.04 µg/mL)
COc1ccc(NC(=O)c2ccc3cc(O)ccc3c2)cc1	< 4.52	69%	0.3313	852 µM (≈ 250 µg/mL)	27 µM (≈ 7.92 µg/mL)	27 µM (≈ 7.92 µg/mL)
O=C(Nc1ccccc1Cl)c1ccc2cc(O)ccc2c1	< 4.52	38%	0.6777	50 µM (≈ 14.9 µg/mL)	27 µM (≈ 8.04 µg/mL)	840 µM (≈ 250 µg/mL)
COc1cccc(NC(=O)c2ccc3cc(O)ccc3c2)c1	< 4.52	62.2%	0.4463	102 µM (≈ 29.9 µg/mL)	27 µM (≈ 7.92 µg/mL)	27 µM (≈ 7.92 µg/mL)
COc1ccccc1NC(=O)c1ccc2cc(O)ccc2c1	< 4.52	–	0.6039	51 µM (≈ 15 µg/mL)	27 µM (≈ 7.92 µg/mL)	27 µM (≈ 7.92 µg/mL)
O=C(Nc1ccc([N+](=O)[O-])cc1)c1ccc2cc(O)ccc2c1	–	–	0.5911	49 µM (≈ 15.1 µg/mL)	26 µM (≈ 8.02 µg/mL)	97 µM (≈ 29.9 µg/mL)
O=C(Nc1cccc(Br)c1)c1ccc2cc(O)ccc2c1	< 4.52	41.2%	0.8767	175 µM (≈ 59.9 µg/mL)	23 µM (≈ 7.87 µg/mL)	23 µM (≈ 7.87 µg/mL)
O=C(Nc1ccccc1[N+](=O)[O-])c1ccc2cc(O)ccc2c1	< 4.52	–	0.8553	195 µM (≈ 60.1 µg/mL)	97 µM (≈ 29.9 µg/mL)	26 µM (≈ 8.02 µg/mL)
O=C(Nc1ccccc1C(F)(F)F)c1ccc2cc(O)ccc2c1	–	–	0.5623	181 µM (≈ 60 µg/mL)	91 µM (≈ 30.1 µg/mL)	377 µM (≈ 125 µg/mL)
O=C(Nc1cccc(F)c1)c1ccc2cc(O)ccc2c1	–	–	0.5766	53 µM (≈ 14.9 µg/mL)	28 µM (≈ 7.88 µg/mL)	53 µM (≈ 14.9 µg/mL)
Cc1ccccc1NC(=O)c1ccc2cc(O)ccc2c1	< 4.52	–	0.369	29 µM (≈ 8.04 µg/mL)	29 µM (≈ 8.04 µg/mL)	29 µM (≈ 8.04 µg/mL)
O=C(Nc1ccc(C(F)(F)F)cc1)c1ccc2cc(O)ccc2c1	< 4.52	–	1.0133	91 µM (≈ 30.1 µg/mL)	24 µM (≈ 7.95 µg/mL)	91 µM (≈ 30.1 µg/mL)
O=C(Nc1ccc(Br)cc1)c1ccc2cc(O)ccc2c1	–	–	0.8884	1460 µM (≈ 500 µg/mL)	23 µM (≈ 7.87 µg/mL)	731 µM (≈ 250 µg/mL)
O=C(Nc1cccc(Cl)c1)c1ccc2cc(O)ccc2c1	–	46.5%	0.7684	101 µM (≈ 30.1 µg/mL)	27 µM (≈ 8.04 µg/mL)	840 µM (≈ 250 µg/mL)
O=C(Nc1ccc(F)cc1)c1ccc2cc(O)ccc2c1	–	–	0.6726	213 µM (≈ 59.9 µg/mL)	28 µM (≈ 7.88 µg/mL)	53 µM (≈ 14.9 µg/mL)
O=C(Nc1ccccc1F)c1ccc2cc(O)ccc2c1	–	–	0.4921	107 µM (≈ 30.1 µg/mL)	107 µM (≈ 30.1 µg/mL)	53 µM (≈ 14.9 µg/mL)
O=C(Nc1ccc(Cl)cc1)c1ccc2cc(O)ccc2c1	< 4.52	43.8%	0.7947	202 µM (≈ 60.1 µg/mL)	27 µM (≈ 8.04 µg/mL)	50 µM (≈ 14.9 µg/mL)
O=C(Nc1ccccc1)c1ccc2cc(O)ccc2c1	< 4.52	–	0.6612	57 µM (≈ 15 µg/mL)	30 µM (≈ 7.9 µg/mL)	30 µM (≈ 7.9 µg/mL)
O=C(Nc1ccccc1Br)c1ccc2cc(O)ccc2c1	< 4.52	–	0.7486	88 µM (≈ 30.1 µg/mL)	175 µM (≈ 59.9 µg/mL)	23 µM (≈ 7.87 µg/mL)
O=C(Nc1cccc([N+](=O)[O-])c1)c1ccc2cc(O)ccc2c1	< 4.52	–	0.8533	97 µM (≈ 29.9 µg/mL)	26 µM (≈ 8.02 µg/mL)	26 µM (≈ 8.02 µg/mL)
NNC(=O)c1ccncc1 [ISONIAZID]	–	–	–	3650 µM (≈ 500 µg/mL)	58 µM (≈ 7.95 µg/mL)	1820 µM (≈ 250 µg/mL)
